According to article PMC10820264, “Combining Experimental and Computational Methods to Produce Conjugates of Anticholinesterase and Antioxidant Pharmacophores with Linker Chemistries Affecting Biological Activities Related to Treatment of Alzheimer’s Disease” (Molecules, 2024):
Several values for one entry are separate records, joined by “and”; a condition that tells them apart may be missing. Identical values can stand only once. Like-named read-outs stand apart in the source and are kept apart here. Marks after values point to notes of the source that are not given here.

Legend:
[1] = target: peripheral anionic site of Electrophorus electricus AChE (EeAChE) (Electrophorus electricus, UniProt O42275); type: binding;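 further: compounds tested at 20 µM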
[2] = test system: Porcine liver CES; assay: CES inhibition, spectrophotometric, 4-NPA substrate; type: biochemical
Experimental: (§1) Human erythrocyte AChE and equine serum BChE were purchased from Milamed (Perm, Russia). Porcine liver CES, substrates, and reference compounds were from Sigma-Aldrich (St. Louis, MO, USA). The activity of enzymes was measured spectrophotometrically, as described in detail in [72] using ATCh iodide, BTCh iodide, and 4-NPA as substrates for AChE, BChE, and CES, respectively. Experimental conditions: K,Na—phosphate buffer (100 mM), 25 °C, pH 7.5 for AChE and BChE and pH 8.0 for CES assay. Measurements were carried out on a FLUOStar Optima microplate reader (BMG Labtech, Ortenberg, Germany).
Test compounds were dissolved in DMSO; the final concentration of solvent in the incubation mixture was 2% (v/v). […]

[3] = target: equine serum BChE (Equus caballus, UniProt P81908); assay: biochemical; type: biochemical
Experimental: as §1
(§2) Test compounds were dissolved in DMSO; the final concentration of solvent in the incubation mixture was 2% (v/v).

[4] = target: Human erythrocyte AChE (Homo sapiens, UniProt P22303); assay: biochemical; type: biochemical
Experimental: as §1, §2

[5] = ABTS radical cation scavenging assay; conditions: for time to reach the activity level of Trolox in ABTS radical scavenging: compound at 20 μM (IC50 of Trolox); for ABTS•+-Scavenging Activity TEAC: Trolox equivalents
[6] = Ferric-reducing antioxidant power (FRAP) assay; conditions: Trolox equivalents
[7] = target: Aβ42 (Homo sapiens, UniProt P05067); assay: Inhibition of Aβ42 self-aggregation, thioflavin T fluorescence; type: biochemical; conditions: for inhibition at 100 µM: read-out: Inhibition of Aβ42 Self-Aggregation
[8] = test system: free radicals in mouse brain homogenate (TBHP-initiated); type: biochemical; conditions: read-out: Radical Scavenging Capacity, Luminol Chemiluminescence Assay IC50
[9] = test system: spontaneous lipid peroxidation in mouse brain homogenate; type: biochemical

equine serum BChE, sequence (P81908 whole entry): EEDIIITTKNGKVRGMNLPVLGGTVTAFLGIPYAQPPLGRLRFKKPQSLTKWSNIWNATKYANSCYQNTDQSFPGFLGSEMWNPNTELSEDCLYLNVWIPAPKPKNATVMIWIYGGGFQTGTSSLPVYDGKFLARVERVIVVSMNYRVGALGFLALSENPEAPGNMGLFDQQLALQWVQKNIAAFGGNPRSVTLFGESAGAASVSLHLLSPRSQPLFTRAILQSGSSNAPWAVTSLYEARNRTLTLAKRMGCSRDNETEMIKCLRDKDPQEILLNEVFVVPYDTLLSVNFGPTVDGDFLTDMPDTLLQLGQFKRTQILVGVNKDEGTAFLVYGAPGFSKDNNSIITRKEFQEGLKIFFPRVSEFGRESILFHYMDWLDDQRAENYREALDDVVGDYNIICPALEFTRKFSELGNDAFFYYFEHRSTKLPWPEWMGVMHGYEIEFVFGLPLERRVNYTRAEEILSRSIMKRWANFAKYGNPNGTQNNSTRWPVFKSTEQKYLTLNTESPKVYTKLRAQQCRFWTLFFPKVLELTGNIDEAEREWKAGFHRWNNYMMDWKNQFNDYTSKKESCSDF
Human erythrocyte AChE, sequence (P22303 other isoform, or with tags, fused parts or gaps): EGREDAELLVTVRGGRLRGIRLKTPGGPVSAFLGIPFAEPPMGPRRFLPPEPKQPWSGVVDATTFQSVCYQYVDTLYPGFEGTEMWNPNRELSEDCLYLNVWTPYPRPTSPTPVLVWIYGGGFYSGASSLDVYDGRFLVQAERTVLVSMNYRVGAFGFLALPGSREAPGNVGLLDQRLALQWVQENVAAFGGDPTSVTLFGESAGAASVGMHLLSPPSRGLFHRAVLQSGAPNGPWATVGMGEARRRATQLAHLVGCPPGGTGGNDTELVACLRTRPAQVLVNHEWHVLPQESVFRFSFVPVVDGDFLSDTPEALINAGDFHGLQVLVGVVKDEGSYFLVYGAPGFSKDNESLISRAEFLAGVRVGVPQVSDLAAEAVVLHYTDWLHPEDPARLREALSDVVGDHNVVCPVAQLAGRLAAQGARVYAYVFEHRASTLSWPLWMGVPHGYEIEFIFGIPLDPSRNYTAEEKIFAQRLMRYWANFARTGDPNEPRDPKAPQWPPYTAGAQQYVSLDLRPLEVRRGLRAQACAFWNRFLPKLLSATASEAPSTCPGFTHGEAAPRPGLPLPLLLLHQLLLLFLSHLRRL
peripheral anionic site of Electrophorus electricus AChE (EeAChE), sequence (O42275 24-633): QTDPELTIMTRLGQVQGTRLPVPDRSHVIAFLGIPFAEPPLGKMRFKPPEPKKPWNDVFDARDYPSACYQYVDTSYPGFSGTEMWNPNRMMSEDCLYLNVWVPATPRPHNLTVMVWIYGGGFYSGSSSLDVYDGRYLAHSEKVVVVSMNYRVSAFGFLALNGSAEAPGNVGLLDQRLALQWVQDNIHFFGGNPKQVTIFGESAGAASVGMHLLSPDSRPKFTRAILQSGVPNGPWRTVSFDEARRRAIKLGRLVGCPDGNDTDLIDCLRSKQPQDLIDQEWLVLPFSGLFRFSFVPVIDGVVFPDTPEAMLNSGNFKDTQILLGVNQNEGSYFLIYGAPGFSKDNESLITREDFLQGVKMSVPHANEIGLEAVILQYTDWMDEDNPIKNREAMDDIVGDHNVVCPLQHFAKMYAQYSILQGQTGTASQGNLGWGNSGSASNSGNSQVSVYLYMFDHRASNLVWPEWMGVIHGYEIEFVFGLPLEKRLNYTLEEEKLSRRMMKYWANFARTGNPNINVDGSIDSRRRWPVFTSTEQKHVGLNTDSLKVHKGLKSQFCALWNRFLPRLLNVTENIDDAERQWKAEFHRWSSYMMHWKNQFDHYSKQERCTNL
Aβ42, sequence (P05067 672-713): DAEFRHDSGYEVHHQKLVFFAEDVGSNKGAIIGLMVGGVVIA

CC(C)(C)c1cc(CNCCCCNc2c3c(nc4ccccc24)CCCC3)cc(C(C)(C)C)c1O [17b, 2,6-Di-tert-butyl-4-{[4-(1,2,3,4-tetrahydro-acridin-9-ylamino)-butylamino]-methyl}-phenol]
Propidium Displacement [1]: 15.4 ± 1.3%
CES % inhibition at 20 μM [2]: 15.8 ± 1.4%
IC50 [3]: 0.111 ± 0.009 µM
IC50 [4]: 0.279 ± 0.022 µM
IC50 [5]: 14.3 ± 0.6 µM
time to reach the activity level of Trolox in ABTS radical scavenging [5]: less than 1 min

CC(C)(C)c1cc(CNCCCCCCNc2c3c(nc4ccccc24)CCCC3)cc(C(C)(C)C)c1O [17c, 2,6-Di-tert-butyl-4-{[6-(1,2,3,4-tetrahydro-acridin-9-ylamino)-hexylamino]-methyl}-phenol]
Propidium Displacement [1]: 16.1 ± 1.1%
CES % inhibition at 20 μM [2]: 18.5 ± 1.6%
IC50 [3]: 0.0361 ± 0.023 µM
IC50 [4]: 0.0702 ± 0.0011 µM
Ferric-Reducing Antioxidant Power TE [6]: 0.44 ± 0.02
IC50 [5]: 15.7 ± 0.6 µM
ABTS•+-Scavenging Activity TEAC [5]: 1.32 ± 0.08
time to reach the activity level of Trolox in ABTS radical scavenging [5]: less than 1 min
inhibition at 100 µM ([7]; Aβ42 50 µM, compound 100 µM): 64.1 ± 5.7%

CC(C)(C)c1cc(CNCCCCCCCCNc2c3c(nc4ccccc24)CCCC3)cc(C(C)(C)C)c1O [17d, 2,6-Di-tert-butyl-4-{[8-(1,2,3,4-tetrahydro-acridin-9-ylamino)-octylamino]-methyl}-phenol]
Propidium Displacement [1]: 13.4 ± 1.2%
CES % inhibition at 20 μM [2]: 23.6 ± 2.1%
IC50 [3]: 0.00756 ± 0.00042 µM
IC50 [4]: 0.0151 ± 0.002 µM
AChE activity relative to tacrine (times more active) ([4]; vs tacrine): ~ 40 times
Ferric-Reducing Antioxidant Power TE [6]: 0.57 ± 0.01
IC50 [5]: 15.2 ± 0.7 µM
time to reach the activity level of Trolox in ABTS radical scavenging [5]: less than 1 min
IC50 [8]: 11.3 ± 1.5 µM
inhibition at 100 µM ([7]; Aβ42 50 µM, compound 100 µM): 71.4 ± 4.9%

CC(C)(C)c1cc(CNCCCCNc2c3c(nc4ccccc24)CCCCC3)cc(C(C)(C)C)c1O [18b, 2,6-Di-tert-butyl-4-{[4-(7,8,9,10-tetrahydro-6H-cyclohepta[b]quinolin-11-ylamino)-butylamino]-methyl}-phenol]
Propidium Displacement [1]: 15.7 ± 1.2%
CES % inhibition at 20 μM [2]: 21.4 ± 1.8%
IC50 [3]: 0.0678 ± 0.0061 µM
IC50 [4]: 0.436 ± 0.016 µM
Ferric-Reducing Antioxidant Power TE [6]: 0.38 ± 0.01
IC50 [5]: 14.6 ± 0.5 µM
time to reach the activity level of Trolox in ABTS radical scavenging [5]: less than 1 min

Cc1cc(C(C)(C)C)c(O)c(C(C)(C)C)c1 [BHT, butylated hydroxytoluene, reference compound]
CES % inhibition at 20 μM [2]: 5.6 ± 0.2%
IC50 ([9]; read-out: Inhibition of Spontaneous Lipid Peroxidation in Mouse Brain Homogenate, TBARS Assay IC50): 6.9 ± 0.3 µM
IC50 ([9]; read-out: Inhibition of spontaneous lipid peroxidation in mice brain homogenate (TBARS Assay) IC50): 7 µM
inhibition at 20 µM ([3]; read-out: BChE % inhibition at 20 μM): 18.9 ± 1.7%
inhibition at 20 µM ([4]; read-out: AChE % inhibition at 20 μM): 6 ± 1.5%
Ferric-Reducing Antioxidant Power TE [6]: 0.96 ± 0.02
IC50 [5]: 22.4 ± 1.4 µM
ABTS•+-Scavenging Activity TEAC [5]: 0.98 ± 0.03
IC50 [8]: 70.4 ± 4.1 µM
Inhibition of Aβ42 Self-Aggregation ([7]; Aβ42 50 µM, compound 100 µM): not detectable

O=c1c(O)c(-c2cc(O)c(O)c(O)c2)oc2cc(O)cc(O)c12 [Myricetin, reference compound]
inhibition at 100 µM [7]: 73.2 ± 5.8%

Nc1c2c(nc3ccccc13)CCCC2 [Tacrine, reference compound]
Inhibition of Aβ42 Self-Aggregation ([7]; Aβ42 50 µM, compound 100 µM): minimal inhibition

Cc1c(C)c2c(c(C)c1O)CCC(C)(C(=O)O)O2 (stereo not shown) [Trolox, 6-hydroxy-2,5,7,8-tetramethylchroman-2-carboxylic acid, reference compound]
Ferric-Reducing Antioxidant Power TE [6]: 1.0
IC50 [5]: 20 µM and 20.1 µM
ABTS•+-Scavenging Activity TEAC [5]: 1.0

Propidium iodide [reference compound]
Inhibition of Aβ42 Self-Aggregation ([7]; Aβ42 50 µM, compound 100 µM): 89.3 ± 7.1 ^b %

bis-4-nitrophenyl phosphate [BNPP, reference compound]
CES % inhibition at 20 μM [2]: 99.1 ± 0.9% ^b
